Results reported in patent publication US10953027B2, “Active agents and methods of their use for the treatment of metabolic disorders and nonalcoholic fatty liver disease” (Flagship Pioneering Innovations V, Inc., priority 2018, dated 2021).

What was measured:
Type in all cases: in vitro ADME
[1] = Assay 3. Fecal Incubation Stability; conditions: 1 or 10 μM, human fecal slurry, anaerobic
[2] = Assay 2. Stability in Simulated Intestinal Fluid (SIF); conditions: 1 μM, 37° C., SIF pH 6.7 with pancreatin
Method in brief: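 Degradation rate measured by LC/MS after acetonitrile quench of timed aliquots, starting at T0. Test compound 1 μM in simulated intestinal fluid (pH 6.7 phosphate buffer, FaSSIF powder, pancreatin), shaken at 37 °C.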

[3] = Assay 1. Stability in Simulated Gastric Fluid (SGF); conditions: 1 μM, 37° C., SGF pH 1.6 with pepsin
Method in brief: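 Simulated gastric fluid, prepared fresh as NaCl buffer at pH 1.6 with 0.1 mg/mL pepsin and FaSSIF powder, received test compound to 1 μM final and was held at 37 °C. LC/MS of acetonitrile-quenched samples, taken immediately and then periodically, gave degradation rates.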

SMILES	Assay 3 (% Remaining at 24 h) [1]	Assay 2 (SIF) (% @ Remaining 4 hours) [2]	Assay 1 (SGF) (% Remaining @ 1 hours) [3]
CCCC(=O)O[C@@H]1[C@H](OC(=O)CCC)C=C(C(=O)O)C[C@H]1OC(=O)CCC [Compound 255, (3R,4S,5R)-3,4,5-tris(butanoyloxy)cyclohex-1-ene-1-carboxylic Acid]	B (B: 25-75% of the tested compound remaining)	C (C: >75% of the tested compound remaining)	C (C: >75% of the tested compound remaining)
CCCC(=O)O[C@H]1[C@H](OC)OC[C@@H](OC(=O)CCC)[C@H]1OC(=O)CCC [Compound 83, (2R,3R,4R,5R)-3,5-bis(butanoyloxy)-2-methoxyoxan-4-yl Butanoate]	A (A: <25% of the tested compound remaining)	A (A: <25% of the tested compound remaining)	C (C: >75% of the tested compound remaining)
CCCC(=O)O[C@H]1[C@H](OC(=O)CCC)[C@H](OC(=O)CCc2c[nH]c3ccccc23)O[C@@H](C)[C@H]1OC(=O)CCC [Compound 117, (2S,3S,4R,5R,6S)-4,5-bis(butanoyloxy)-2-{[3-(1H-indol-3-yl)propanoyl]oxy}-6-methyloxan-3-yl Butanoate]	A (A: <25% of the tested compound remaining)	A (A: <25% of the tested compound remaining)	C (C: >75% of the tested compound remaining)
CCC(=O)OC[C@H]1O[C@H](OC(=O)Cc2c[nH]c3ccccc23)[C@H](OC(=O)CC)[C@@H](OC(=O)CC)[C@@H]1OC(=O)CC [Compound 146, [(2R,3R,4S,5R,6R)-6-{[2-(1H-indol-3-yl)acetyl]oxy}-3,4,5-tris(propanoyloxy)oxan-2-yl]methyl Propanoate]	A (A: <25% of the tested compound remaining)	A (A: <25% of the tested compound remaining)	C (C: >75% of the tested compound remaining)
CCC(=O)O[C@@H]1OC[C@@H](OC(=O)CC)[C@@H](OC(=O)CC)[C@H]1OC(=O)CC [Compound 136, (2S,3R,4R,5R)-3,4,5-tris(propanoyloxy)oxan-2-yl Propanoate]	A (A: <25% of the tested compound remaining)	A (A: <25% of the tested compound remaining)	C (C: >75% of the tested compound remaining)
CCC(=O)O[C@H]1[C@H](OC(=O)Cc2c[nH]c3ccccc23)OC[C@@H](OC(=O)CC)[C@H]1OC(=O)CC [Compound 138, (2S,3R,4R,5R)-2-{[2-(1H-indol-3-yl)acetyl]oxy}-4,5-bis(propanoyloxy)oxan-3-yl Propanoate]	A (A: <25% of the tested compound remaining)	A (A: <25% of the tested compound remaining)	C (C: >75% of the tested compound remaining)
CCC(=O)O[C@H]1[C@H](OC(=O)/C=C/c2c[nH]c3ccccc23)OC[C@@H](OC(=O)CC)[C@H]1OC(=O)CC [Compound 124, (2S,3R,4R,5R)-3,4,5-tris(propanoyloxy)oxan-2-yl (2E)-3-(1H-indol-3-yl)prop-2-enoate]	A (A: <25% of the tested compound remaining)	A (A: <25% of the tested compound remaining)	C (C: >75% of the tested compound remaining)
CC(=O)O[C@@H]1[C@H](OC(C)=O)C=C(C(=O)O)C[C@H]1OC(C)=O [Compound 43, (3R,4S,5R)-3,4,5-triacetoxycyclohex-1-ene-1-carboxylic Acid]	B (B: 25-75% of the tested compound remaining)	C (C: >75% of the tested compound remaining)	C (C: >75% of the tested compound remaining)
